The source of these data is ChEMBL document CHEMBL4251567 (Eur J Med Chem, 2018).

Assay [1] relates to U-937. The experiment in a line: Cytotoxicity against human U937 cells assessed as cell viability at 4 x 10^-6 M after 44 hrs by MTT assay relative to control. Conditions: U-937, 44 h, read-out: Activity. The assay is classed as functional. Background: Tetrazolium dyes change colour on reduction, which living cells bring about.
Assay [2] concerns U-937. The experiment in a line: Cytotoxicity against human U937 cells assessed as cell viability at 8 x 10^-6 M after 44 hrs by MTT assay relative to control. It counts as functional. Conditions: U-937, 44 h, read-out: Activity.
The subject of assay [3] is U-937. As to the kind of experiment: Cytotoxicity against human U937 cells assessed as cell viability at 1.6 x 10^-5 M after 44 hrs by MTT assay relative to control. It counts as functional. Conditions: U-937, 44 h, read-out: Activity.
Assay [4] relates to U-937. The experiment in a line: Cytotoxicity against human U937 cells assessed as cell viability at 6.4 x 10^-5 M after 44 hrs by MTT assay relative to control. The assay is classed as functional. Conditions: U-937, 44 h, read-out: Activity.
Assay [5] has as its system Jurkat. As to the kind of experiment: Cytotoxicity against human Jurkat cells assessed as cell viability at 10 uM after 44 hrs by MTT assay relative to control. The assay is classed as functional. Conditions: read-out: Activity.
Assay [6] deals with U-937. The experiment in a line: Cytotoxicity against human U937 cells assessed as cell viability at 3.2 x 10^-5 M after 44 hrs by MTT assay relative to control. It counts as functional. Conditions: U-937, 44 h, read-out: Activity.
Assay [7] deals with Jurkat. As to the kind of experiment: Cytotoxicity against human Jurkat cells assessed as cell viability at 1 uM after 44 hrs by MTT assay relative to control. It counts as functional. Conditions: read-out: Activity.
For assay [8], the system named is U-937. As to the kind of experiment: Cytotoxicity against human U937 cells assessed as cell viability at 2 x 10^-6 M after 44 hrs by MTT assay relative to control. The assay is classed as functional. Conditions: U-937, 44 h, read-out: Activity.
In assay [9] the test system is U-937. As to the kind of experiment: Cytotoxicity against human U937 cells assessed as decrease in cell viability after 44 hrs by MTT assay. It counts as functional, cell-based. Conditions: u-937.

The structures appear in SMILES notation.

Broadly, the EC50 is the concentration needed to bring the measured effect to its halfway point. Turning to `CCCCC(CCCC(=O)Nc1ccccc1)CCC(=O)NO` (centres undefined), the viability at 4 µM in [1] worked out at 100%. Also, the viability at 8 µM in assay [2] came out at 87%. Further, in assay [3], the viability at 16 µM is 80%. For the same compound, in assay [4], the viability at 64 µM was determined as 24%. In assay [5], the viability at 10 µM was 62%. In [6], the viability at 32 µM was 54%. Further, the viability at 1 µM in [7] turned out to be 98%. In assay [8], the viability at 2 µM is 100%. Also, in assay [9], the EC50 came to 34 µM.
